Data reported in patent publication US6638972B2, “Chroman and benzofuran derivatives as 5-hydroxytryptamine-6 ligands” (Wyeth, priority 2001, dated 2003).

How the values were obtained:
[1] = biological target: T1, human cloned 5-HT6 receptors (Homo sapiens, UniProt P50406); assay: 5-HT6 binding affinity ([3H]-LSD displacement, membranes of Hela cells expressing human cloned 5-HT6 receptors); settings: [3H]-LSD 3.0 nM, Hela cell membranes, 120 min at room temperature; read-out: 5-HT6 Binding Ki
T1 construct: expressed in transfected cells; host or cells: HeLa cells (membrane preparation)
T1 sequence (P50406 whole entry): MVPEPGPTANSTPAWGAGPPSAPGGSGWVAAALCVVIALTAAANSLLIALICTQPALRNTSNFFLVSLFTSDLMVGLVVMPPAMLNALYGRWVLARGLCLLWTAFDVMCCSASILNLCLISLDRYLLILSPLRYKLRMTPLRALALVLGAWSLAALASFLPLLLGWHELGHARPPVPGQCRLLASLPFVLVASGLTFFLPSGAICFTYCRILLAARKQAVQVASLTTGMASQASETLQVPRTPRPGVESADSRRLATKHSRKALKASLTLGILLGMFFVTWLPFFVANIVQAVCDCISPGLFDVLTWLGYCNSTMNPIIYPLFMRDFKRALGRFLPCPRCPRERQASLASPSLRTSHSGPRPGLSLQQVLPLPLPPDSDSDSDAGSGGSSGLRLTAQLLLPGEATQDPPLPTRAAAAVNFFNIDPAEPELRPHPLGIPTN
Description: The affinity of test compounds for the serotonin 5-T6 receptor is evaluated in the following manner. Cultured Hela cells expressing human cloned 5-HT6 receptors are harvested and centrifuged at low speed (1,000×g) for 10.0 min to remove the culture media. The harvested cells are suspended in half volume of fresh physiological phosphate buffered saline solution and recentrifuged at the same speed. This operation is repeated. The collected cells are then homogenized in ten volumes of 50 mM Tris.HCl (pH 7.4) and 0.5 mM EDTA. The homogenate is centrifuged at 40,000×g for 30.0 min and the precipitate is collected. The obtained pellet is resuspended in 10 volumes of Tris.HCl buffer and recentrifuged at the same speed. The final pellet is suspended in a small volume of Tris.HCl buffer and the tissue protein content is determined in aliquots of 10-25 μl volumes. Bovine Serum Albumin is used as the standard in the protein determination according to the method described in Lowry et al., J. Biol. Chem., 193:265 (1951). The volume of the suspended cell membranes is adjusted to give a tissue protein concentration of 1.0 mg/ml of suspension. The prepared membrane suspension (10 times concentrated) is aliquoted in 1.0 ml volumes and stored at −70° C. until used in subsequent binding experiments.
Binding experiments are performed in a 96 well microtiter plate format, in a total volume of 200 μl. […] The test compounds are added in 20.0 μl volume.
The reaction is allowed to proceed in the dark for 120 min at room temperature, at which time, the bound ligand-receptor complex is filtered off on a 96 well unifilter with a Packard Filtermate® 196 Harvester. The bound complex caught on the filter disk is allowed to air dry and the radioactivity is measured in a Packard TopCount® equipped with six photomultiplier detectors, after the addition of 40.0 μl Microscint®-20 scintillant to each shallow well. The unifilter plate is heat-sealed and counted in a PackardTopCount® with a tritium efficiency of 31.0%.
Binding in the presence of varying concentrations of test compound is expressed as a percentage of specific binding in the absence of test compound. The results are plotted as log % bound versus log concentration of test compound. […] A linear regression line of data points is plotted, from which the IC50 value is determined and the Ki value is determined based upon the following equation: […]
where L is the concentration of the radioactive ligand used and KD is the dissociation constant of the ligand for the receptor, both expressed in nM.

Ki [1]: 157 nM
melting point: 118 to 120 °C
SMILES: O=[N+]([O-])c1ccc(OCCCNCC2CCc3ccc(OCc4ccccc4)cc3O2)cc1 (centres unmarked) [Example 32, (7-benzyloxy-chroman-2-ylmethyl)-[3-(4-nitro-phenoxy)-propyl]-amine]
